What was measured:
Format in all cases: cell-based, human
COUP-TFI = assay: Qualitative immunoreactivity signal for COUP-TFI in hiPSC-derived cardiomyocytes (co-staining with alpha actinin); set-up: key: +++: Strongest immunoreactivity signal (i.e. fluorescence staining); ++: Moderate immunoreactivity signal (i.e. fluorescence staining); +: Lowest immunoreactivity signal (i.e. fluorescence staining); +/−: Marginal immunoreactivity signal (i.e. fluorescence staining) (i.e. very low signal, not consistently observed in all cells).; −: No immunoreactivity signal (i.e. fluorescence staining)
Procedure: (§1) The purpose of this experiment was to determine the influence of retinoic acid (RA) (i.e. all-trans retinoic acid was used in the experiments below) on differentiation of hiPSC into atrial cardiomyocytes. Specifically, the influence of all-trans retinoic acid concentration (1 microM vs 10 microM) as well as the effect of timing/duration of retinoic acid application (i.e. d2-4 vs d3-d4 vs d2-18) were tested according to the following experimental scheme:
(§2) The aqueous media consisted of the following composition: 46.5% IMDM (Gibco 21056), 0.25% Bovostar BSA, 46.5% Ham's F12 with Glutamax, 2 mM Glutamax, 450 nM alphaMTG, 0.05 mg/ml ascorbic acid, 0.5% 5000 U/ml Pen/Strep (Gibco 12070), 0.01% 1000* Trace elements mix B (Cellgro 99-176-CL), 0.1% 1000* Trace elements mix C (Cellgro 99-176-CL). The aqueous media was used in all four treatment groups, except that RA was added at different concentrations depending on the given treatment group, i.e. 10 microM for treatment group 1 and 2 and 1 microM for treatment groups 3 and 4.
(§3) For all treatment groups, CHIR-99021 was used at a concentration of 5 microM.
(§4) For all experimental groups, a combination of 5 microM of XAV-939 and 0.25 microM of IWP-L6 was used. Plating of hiPSC hiPSC were seeded in 12-well plates at density of 60.000 cells per well or a split ratio that was empirically determined to give 30-80% confluence after 4 days. Culture media was replaced after 4 days, in each treatment group, with a differentiation media as described in Table 1.
(§5) Step a): The hiPSC were contacted with 5 microM of CHIR-99021 for a period of 48 hours. At the term of step a), the media was refreshed, i.e. replaced by a media devoid of CHIR-99021 and comprising 5 microM of XAV-939 and 0.25 microM of IWP-L6.
(§6) Step b): Immediately after having refreshed the medium of step a), i.e. immediately after the 48 hours of step a) (which correspond to 2 days after having initiated step a), the cells were contacted with 5 microM of XAV-939 and 0.25 microM of IWP-L6 as well as with 10 microM of all trans retinoic acid. The cells were cultured in this media for 48 hours. At the term of step b), the media was refreshed with a media but devoid of CHIR-99021, XAV-939, and IWP-L6. The hiPSC-derived cardiomyocytes were further cultured until 14 days after initiating step a), after which they were harvested and submitted to immunohistochemical procedure for assessment of atrial phenotype (see example 3 below).
(§7) Step b): Immediately after having refreshed the medium of step a), i.e. immediately after the 48 hours of step a), the cells were contacted with 5 microM of XAV-939 and 0.25 microM of IWP-L6. At 24 hours after initiating step b) (which corresponds to 3 days after having initiated step a), 10 microM of retinoic acid was added to the media of step b). […]

COUP-TFII = assay: Qualitative immunoreactivity signal for COUP-TFII in hiPSC-derived cardiomyocytes (co-staining with alpha actinin); set-up: key: +++: Strongest immunoreactivity signal (i.e. fluorescence staining); ++: Moderate immunoreactivity signal (i.e. fluorescence staining); +: Lowest immunoreactivity signal (i.e. fluorescence staining); +/−: Marginal immunoreactivity signal (i.e. fluorescence staining) (i.e. very low signal, not consistently observed in all cells).; −: No immunoreactivity signal (i.e. fluorescence staining)
Procedure: as §1, §2, §3, §4, §5, §6, §7

hiPSC = assay: Differentiation of hiPSC into cardiomyocytes having an atrial phenotype (phenotype analysis, text summary); settings: for differentiation of hiPSC into atrial cardiomyocytes (immunoreactive signal for COUP-TF1 and/or COUP-TF1): 1 microM; for differentiation of hiPSC into cardiomyocytes having an atrial phenotype (immunoreactive signal for COUP-TF1 and/or COUP-TF1): 10 microM
Procedure: as §1, §5, §6
as §6, with “step” for “step a) (which correspond to 2 days after having initiated step”, “of IWP-L6. At 24 hours after initiating step b) (which corresponds to 3 days after having initiated step a),” for “of IWP-L6 as well as with”, “of” for “of all trans”, “retinoic acid was added to the media of step b).” for “retinoic acid.”, “for 24” for “for 48”
Step b): Immediately after having refreshed the medium of step a), i.e. immediately after the 48 hours of step a), the cells were contacted with 5 microM of XAV-939 and 0.25 microM of IWP-L6. At 24 hours after initiating step b) (which corresponds to 3 days after having initiated step a), 1 microM of retinoic acid was added to the media of step b). The cells were cultured in this media for 24 hours. At the term of step b), the media was refreshed with a media but devoid of CHIR-99021, XAV-939, and IWP-L6. […]

[1] = treatment group 1: 10 microM RA/d 2-4
[2] = treatment group 2: 10 microM RA/d 3-4
[3] = treatment group 3: 1 microM RA/d 3-4
[4] = treatment group 4: 1 microM RA/d 2-14 + 4

**Q.** How did the “intensity of the immunoreactivity signal for COUP-TFI” value (COUP-TFI; [1]) turn out when `CC1=C(/C=C/C(C)=C/C=C/C(C)=C/C(=O)O)C(C)(C)CCC1` [RA, all-trans retinoic acid] was run?
**A.** ++

**Q.** What about the “intensity of the immunoreactivity signal for COUP-TFI” value (COUP-TFI; [2]) of the same compound?
**A.** +

**Q.** And the “intensity of the immunoreactivity signal for COUP-TFI” value (COUP-TFI; [3])?
**A.** −

**Q.** And the “intensity of the immunoreactivity signal for COUP-TFI” value (COUP-TFI; [4])?
**A.** +/−

**Q.** And the “intensity of the immunoreactivity signal for COUP-TFII” value (“intensity … for COUP-TFII” below) (COUP-TFII; [1])?
**A.** +++

**Q.** And the “intensity … for COUP-TFII” value (COUP-TFII; [2])?
**A.** ++

**Q.** What about the “intensity … for COUP-TFII” value (COUP-TFII; [3]) of the same compound?
**A.** −

**Q.** What about the “intensity … for COUP-TFII” value (COUP-TFII; [4]) of the same compound?
**A.** +

**Q.** What about the “differentiation of hiPSC into atrial cardiomyocytes (immunoreactive signal for COUP-TF1 and/or COUP-TF1)” value (hiPSC; added 2 days (48 hours) after initiating step a, duration 12 days (group 4)) of the same compound?
**A.** low immunoreactive signal

**Q.** And the “differentiation of hiPSC into atrial cardiomyocytes (immunoreactive signal for COUP-TF1 and/or COUP-TF1)” value (hiPSC; added 3 days (72 hours) after initiating step a, duration 24 hours (group 3))?
**A.** marginal or no immunoreactive signal

**Q.** And the “differentiation of hiPSC into cardiomyocytes having an atrial phenotype (immunoreactive signal for COUP-TF1 and/or COUP-TF1)” value (hiPSC; added 2 days (48 hours) after initiating step a, duration 48 hours (group 1))?
**A.** strongest immunoreactive signal

**Q.** And the “differentiation of hiPSC into cardiomyocytes having an atrial phenotype (immunoreactive signal for COUP-TF1 and/or COUP-TF1)” value (hiPSC; added 3 days (72 hours) after initiating step a, duration 24 hours (group 2))?
**A.** moderate immunoreactive signal

Source: patent US20200216812A1, “IN VIVO METHOD FOR DIFFERENTIATING HUMAN PLURIPOTENT STEM CELLS INTO ATRIAL CARDIOMYOCYTES” (Ncardia B.V., priority 2016, published 2020)
